According to US7893256B2, “Azabicycloalkane compounds” (Theravance, Inc., priority 2003, dated 2011):

Molecular target: T1, hM3 receptor (Homo sapiens, UniProt P20309)
T1 construct: expressed in transfected cells
Experiment: Blockade of agonist-mediated calcium release via FLIPR assays (Assay Test Procedure D, C)
Assay type: cell-based
Settings: CHO cells stably expressing the hM3 receptor
Text: Muscarinic receptor subtypes (M1, M3 and M5 receptors), which couple to Gq proteins, activate the phospholipase C (PLC) pathway upon agonist binding to the receptor. As a result, activated PLC hydrolyzes phosphatyl inositol diphosphate (PIP2) to diacylglycerol (DAG) and […] (IP3), which in turn generates calcium release from intracellular stores, i.e., endoplasmic and sarcoplasmic reticulum. The FLIPR (Molecular Devices, Sunnyvale, Calif.) assay capitalizes on this increase in intracellular calcium by using a calcium sensitive dye (Fluo-4AM, Molecular Probes, Eugene, Oreg.) that fluoresces when free calcium binds. This fluorescence event is measured in real time by the FLIPR, which detects the change in fluorescence from a monolayer of cells cloned with human M1 and M3, and chimpanzee M5 receptors. Antagonist potency can be determined by the ability of antagonists to inhibit agonist-mediated increases in intracellular calcium. […]
To determine antagonist potency, the dose-dependent stimulation of intracellular Ca^2+ release for oxotremorine was first determined so that antagonist potency can later be measured against oxotremorine stimulation at an EC90 concentration. […]
The change of fluorescence is expressed as maximum fluorescence minus baseline fluorescence for each well. […]

T1 sequence (P20309 whole entry): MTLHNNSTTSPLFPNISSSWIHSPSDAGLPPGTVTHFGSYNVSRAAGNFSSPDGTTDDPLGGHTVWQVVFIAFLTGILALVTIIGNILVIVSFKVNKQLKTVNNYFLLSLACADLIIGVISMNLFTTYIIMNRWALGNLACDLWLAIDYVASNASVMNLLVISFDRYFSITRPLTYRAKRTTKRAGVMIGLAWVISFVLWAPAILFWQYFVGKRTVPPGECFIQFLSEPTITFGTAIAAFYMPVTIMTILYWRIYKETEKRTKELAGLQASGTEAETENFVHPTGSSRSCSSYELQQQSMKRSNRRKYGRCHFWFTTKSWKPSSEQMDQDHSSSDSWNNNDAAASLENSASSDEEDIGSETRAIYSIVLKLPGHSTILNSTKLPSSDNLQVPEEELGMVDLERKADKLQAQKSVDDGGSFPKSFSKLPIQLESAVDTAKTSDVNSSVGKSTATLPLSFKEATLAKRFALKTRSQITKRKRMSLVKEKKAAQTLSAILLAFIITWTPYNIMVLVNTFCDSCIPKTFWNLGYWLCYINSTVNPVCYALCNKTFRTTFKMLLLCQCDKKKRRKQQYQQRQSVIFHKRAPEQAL

## C[N+]1(CCCCCCCCCNC[C@H](O)c2ccc(O)c3[nH]c(=O)ccc23)C2CC(OC(=O)C(O)(c3cccs3)c3cccs3)CC1C1OC12.C[N+]1(CCCCCCCCCNC[C@H](O)c2ccc(O)c3[nH]c(=O)ccc23)C2CC(OC(=O)C(O)(c3cccs3)c3cccs3)CC1C1OC12.O=C([O-])C(F)(F)F.O=C([O-])C(F)(F)F (stereo partly drawn) [Example 1, 7-(2-Hydroxy-2,2-dithiophen-2-ylacetoxy)-9-{9-[(R)-2-hydroxy-2-(8-hydroxy-2-oxo-1,2-dihydroquinolin-5-yl)ethylamino]nonyl}-9-methyl-3-oxa-9-azonia-tricyclo[3.3.1.0^2,4]nonane Ditrifluoroacetate]
  Ki: < 0.05 µM
